{
  "source": "patent US8394792B2",
  "about": "“Heterocyclic derivatives” (C&C Research Laboratories, priority 2008, dated 2013)",
  "key": {"[1]": {"conditions": "cited from earlier work; for excretion rate in urine: until 72 hours after administration of benzbromarone"}, "[2]": {"test_system": "Cebus monkey", "experiment": "Test for uricosuric effect in Cebus monkey", "assay_type": "in vivo", "conditions": "for Plasma uric acid level: 4 hours after administration"}, "[3]": {"molecular_target": "T1, hURAT1 (Homo sapiens, UniProt Q96S37)", "T1 construct": "expressed in transfected cells; host or cells: HEK293 (human kidney cell line), transient transfection with Fugene6", "T1 sequence (Q96S37 1-553)": "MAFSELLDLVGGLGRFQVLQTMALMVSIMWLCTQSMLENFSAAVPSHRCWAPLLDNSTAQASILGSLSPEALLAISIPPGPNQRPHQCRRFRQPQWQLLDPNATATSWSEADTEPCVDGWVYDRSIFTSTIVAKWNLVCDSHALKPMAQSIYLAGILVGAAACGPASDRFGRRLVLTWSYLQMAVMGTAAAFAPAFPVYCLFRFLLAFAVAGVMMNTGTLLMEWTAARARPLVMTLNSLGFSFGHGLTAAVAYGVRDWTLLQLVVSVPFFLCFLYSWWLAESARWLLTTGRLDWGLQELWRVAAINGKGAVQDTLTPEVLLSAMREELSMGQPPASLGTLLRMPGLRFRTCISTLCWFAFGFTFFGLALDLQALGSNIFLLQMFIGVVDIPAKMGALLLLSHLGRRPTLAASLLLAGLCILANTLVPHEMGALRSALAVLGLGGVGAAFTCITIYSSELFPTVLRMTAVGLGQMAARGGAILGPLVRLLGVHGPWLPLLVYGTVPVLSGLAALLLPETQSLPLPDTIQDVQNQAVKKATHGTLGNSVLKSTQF", "experiment": "Test for inhibiting urate reuptake activity via hURAT1 (uric acid transport assay in hURAT1-overexpressed HEK293 cell line)", "assay_type": "cell-based", "conditions": "hURAT1-overexpressed HEK293 cells, [14C]-uric acid uptake, 100 μM uric acid; read-out: IC50 (μM) hURAT, level of uric acid reuptake inhibition"}, "[4]": {"experiment": "Test for solubility according to pH", "assay_type": "physicochemical", "conditions": "37° C. 2 hours"}, "[5]": {"molecular_target": "T2, CYP2C9 (Homo sapiens, UniProt P11712)", "T2 sequence (P11712 whole entry)": "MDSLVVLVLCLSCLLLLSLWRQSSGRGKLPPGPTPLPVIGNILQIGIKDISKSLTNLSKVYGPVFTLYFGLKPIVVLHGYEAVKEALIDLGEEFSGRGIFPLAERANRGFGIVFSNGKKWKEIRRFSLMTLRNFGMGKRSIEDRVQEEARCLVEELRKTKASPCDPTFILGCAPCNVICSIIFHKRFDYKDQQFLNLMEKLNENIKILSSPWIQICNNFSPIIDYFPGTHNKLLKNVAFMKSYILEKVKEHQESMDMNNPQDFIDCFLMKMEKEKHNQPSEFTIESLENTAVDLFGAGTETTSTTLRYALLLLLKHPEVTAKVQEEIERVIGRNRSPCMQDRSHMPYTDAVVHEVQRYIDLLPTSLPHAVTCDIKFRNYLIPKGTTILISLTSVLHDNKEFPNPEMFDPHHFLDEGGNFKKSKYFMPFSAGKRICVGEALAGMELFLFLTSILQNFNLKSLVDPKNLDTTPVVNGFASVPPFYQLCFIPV", "experiment": "biochemical"}, "[6]": {"molecular_target": "T2, CYP2C9"}, "[7]": {"conditions": "2 tablets (50 mg/tablet) benzbromarone one time, healthy fasting adult"}, "[8]": {"conditions": "oral 15 mg/kg, during 0~8 hours"}},
  "note": "Like-named read-outs stand apart in the source and are kept apart here.",
  "data": [
    {"smiles": "CCc1oc2cc(O)ccc2c1C(=O)c1cc(Br)c(O)c(Br)c1", "note": "[6-hydroxy benzbromarone]", "values": [
      {"measurement": "half-life of drug", "setting": "[1]; [7]", "result": "18.0 ± 2.9", "unit": "h"},
      {"measurement": "maximum concentration of drug (Cmax)", "setting": "[1]; [7]", "result": "1700 ± 400", "unit": "ng/mL"},
      {"measurement": "time of maximum drug concentration in blood (Tmax)", "setting": "[1]; [7]", "result": "4.8 ± 1.3", "unit": "h"},
      {"measurement": "excretion rate in urine", "setting": "[1]", "result": "1.2 % of the administered amount"}
    ]},
    {"smiles": "CCc1oc2ccccc2c1C(=O)c1cc(Br)c(O)c(Br)c1", "note": "[Benzbromarone, reference compound]", "values": [
      {"measurement": "Plasma uric acid level", "setting": "[2]; oral 15 mg/kg", "result": 3.80, "unit": "mg/dL"},
      {"measurement": "Fractional excretion rate of uric acid (FEua)", "setting": "[2]; [8]", "result": "20.0±10.5", "unit": "%"},
      {"measurement": "area under the curve (AUC)", "setting": "[1]; [7]", "result": "15900 ± 3300", "unit": "ng·h/mL"},
      {"measurement": "half-life of drug", "setting": "[1]; [7]", "result": "5.4 ± 1.9", "unit": "h"},
      {"measurement": "time of maximum drug concentration in blood (Tmax)", "setting": "[1]; [7]", "result": "2.7 ± 1.0", "unit": "h"},
      {"measurement": "excretion rate in urine", "setting": "[1]", "result": "not detected"}
    ]},
    {"smiles": "O=C(c1cc(Br)c(O)c(Br)c1)N1CCOc2ccncc21", "note": "[Compound 4, (3,5-dibromo-4-hydroxy-phenyl)-(2,3-dihydro-pyrido[4,3-b][1,4]oxazin-4-yl)-methanone]", "values": [
      {"measurement": "IC50", "setting": "[3]", "result": 0.023, "unit": "µM"},
      {"measurement": "Solubility (μg/mL) pH 1.2", "setting": "[4]; first solution pH about 1.2, 2 mg/mL", "result": 1927, "unit": "μg/mL"},
      {"measurement": "Solubility (μg/mL) pH 6.8", "setting": "[4]; second solution pH about 6.8, 2 mg/mL", "result": 970, "unit": "μg/mL"},
      {"measurement": "enhanced uricosuric effect compared with Benzbromarone", "setting": "[2]; 15 mg/kg, during 0~8 hours", "result": 160, "unit": "%"},
      {"measurement": "Plasma uric acid level", "setting": "[2]; oral 3.75 mg/kg", "result": 3.88, "unit": "mg/dL"},
      {"measurement": "Fractional excretion rate of uric acid (FEua)", "setting": "[2]; oral 3.75 mg/kg, during 0~8 hours", "result": "24.1±13.3", "unit": "%"},
      {"measurement": "Plasma uric acid level", "setting": "[2]; oral 7.5 mg/kg", "result": 3.66, "unit": "mg/dL"},
      {"measurement": "Fractional excretion rate of uric acid (FEua)", "setting": "[2]; oral 7.5 mg/kg, during 0~8 hours", "result": "31.6±13.3", "unit": "%"},
      {"measurement": "Plasma uric acid level", "setting": "[2]; oral 15 mg/kg", "result": 3.40, "unit": "mg/dL"},
      {"measurement": "Fractional excretion rate of uric acid (FEua)", "setting": "[2]; [8]", "result": "33.2±19.8", "unit": "%"},
      {"measurement": "IC50", "setting": "[5]", "result": 24.3, "unit": "µM"}
    ]},
    {"smiles": "O=C(CN1C(=O)COc2ccncc21)c1cc(Br)c(O)c(Br)c1", "note": "[Compound 56]", "values": [
      {"measurement": "IC50", "setting": "[6]", "result": "> 20", "unit": "µM"}
    ]}
  ]
}
